Experimental data published in paper PMC8533206 (Antioxidants, 2021).
Entries after “also recorded” stand apart in the source; their conditions may differ.

Legend:
[1] = biological target: T1, Human recombinant MAO-A (hMAO-A) (Homo sapiens, UniProt P21397); test: MAO-A inhibition assay (Amplex Red fluorescence, p-tyramine substrate); type: biochemical
T1 construct: purchased Sigma-Aldrich; host or cells: insect cells
T1 sequence (P21397 1-527): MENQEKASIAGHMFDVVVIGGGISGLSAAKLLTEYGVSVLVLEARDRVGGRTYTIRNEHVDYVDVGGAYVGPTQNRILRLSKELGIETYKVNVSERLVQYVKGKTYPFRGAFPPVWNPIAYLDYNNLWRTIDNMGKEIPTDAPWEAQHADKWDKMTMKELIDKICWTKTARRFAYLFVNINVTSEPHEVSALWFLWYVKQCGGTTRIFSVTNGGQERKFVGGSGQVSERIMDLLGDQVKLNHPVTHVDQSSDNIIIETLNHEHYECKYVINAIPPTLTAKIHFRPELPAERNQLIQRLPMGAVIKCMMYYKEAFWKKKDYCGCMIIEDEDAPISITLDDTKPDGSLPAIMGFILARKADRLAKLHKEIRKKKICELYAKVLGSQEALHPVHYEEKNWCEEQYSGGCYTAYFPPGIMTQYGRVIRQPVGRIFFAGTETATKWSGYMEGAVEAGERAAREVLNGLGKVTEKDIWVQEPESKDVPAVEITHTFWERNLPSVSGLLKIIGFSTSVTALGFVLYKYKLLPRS
Description: The biological evaluation of the tested compounds over both MAO-A and MAO-B was performed following the previously reported method. The MAO activity was measured in relative fluorescence units (RFU) evoked by peroxidase-catalyzed oxidation of Amplex Red® to resorufin, in which H2O2 generated by MAO reaction was used as the electron donor. Human recombinant MAO-A (hMAO-A) and MAO-B (hMAO-B) enzymes expressed in insect cells were obtained from Sigma-Aldrich. The 2 μL of test compound in DMSO ([…]) was treated with 98 μL of hMAO enzyme solution in 50 mM sodium phosphate buffer (pH 7.4, final protein amounts: ~1.25 μg protein/well for MAO-A and ~2.5 μg protein/well for MAO-B) on 96-well black plate and incubated for 15 min at 37 °C. Then, 100 μL of reaction working solution which is a mixed solution of 400 μM Amplex Red® (Cayman, final concentration: 200 μM), 2 U/mL horseradish peroxidase (Sigma-Aldrich, final concentration: 1 U/mL) and 2 mM substrate (p-tyramine for MAO-A, benzylamine for MAO-B, Sigma-Aldrich, final concentration: 1 mM) in 50 mM sodium phosphate buffer (pH 7.4) were added and incubated for 20 min at 37 °C in the dark. The fluorescent intensity was quantified using a microplate reader (SpectraMax®i3, Molecular Device) with an excitation at 545 nm and an emission at 590 nm. The 50% inhibitory concentrations (IC50) of compounds were determined as the mean ± S.E.M. in triplicate from the dose-response inhibition curves using SigmaPlot® 13.0 (Systat Software Inc., San Jose, CA, USA).

hMAO-B enzyme = biological target: T2, hMAO-B enzyme (Homo sapiens, UniProt P27338); test: Michaelis-Menten kinetic study of MAO-B inhibition mode; type: biochemical; details: for Type of MAO-B inhibition: Lineweaver-Burk plots intersect at y-axis; for Ki: benzylamine 0.065-4 mM, inhibitor 10, 30, 100 nM, read-out: Ki (inhibition constant), MAO-B
T2 construct: purchased Sigma-Aldrich; host or cells: insect cells
T2 sequence (P27338 1-520): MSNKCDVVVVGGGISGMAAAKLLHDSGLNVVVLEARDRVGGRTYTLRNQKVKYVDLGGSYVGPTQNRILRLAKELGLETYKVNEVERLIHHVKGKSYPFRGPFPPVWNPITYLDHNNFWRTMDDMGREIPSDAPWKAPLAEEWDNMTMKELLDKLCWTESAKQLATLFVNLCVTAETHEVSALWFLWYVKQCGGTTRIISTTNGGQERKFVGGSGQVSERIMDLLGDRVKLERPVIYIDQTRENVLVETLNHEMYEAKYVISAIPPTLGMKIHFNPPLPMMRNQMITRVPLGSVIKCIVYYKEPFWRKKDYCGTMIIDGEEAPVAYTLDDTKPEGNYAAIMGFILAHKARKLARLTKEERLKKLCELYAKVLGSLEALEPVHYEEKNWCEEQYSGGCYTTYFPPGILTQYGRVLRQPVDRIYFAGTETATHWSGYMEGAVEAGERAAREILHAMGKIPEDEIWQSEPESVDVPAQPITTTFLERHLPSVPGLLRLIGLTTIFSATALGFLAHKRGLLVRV
Description: The type of MAO-B inhibition of the tested compounds was determined by Michaelis-Menten kinetic study following our recently reported study. The type of MAO-B inhibition of the tested compound(s) was determined by Michaelis–Menten kinetic study. The catalytic rates of the hMAO-B enzyme in the absence or in the presence of three different concentrations (10, 30, and 100 nM) of the tested compound were measured at seven different concentrations of the benzylamine (0.065, 0.125, 0.25, 0.5, 1, 2, and 4 mM). The corresponding progression curves and the Lineweaver-Burk plots were generated using GraphPad Prism 7 (GraphPad Software, Inc., La Jolla, CA, USA). The maximal velocity (Vmax), the Michaelis constant (Km), and the inhibition constant (Ki) were calculated using SigmaPlot® 13.0.
The initial rates of MAO-B inhibition in the absence and presence of the tested compound were measured at various concentrations (0.065, 0.125, 0.25, 0.5, 1, 2, and 4 mM) of benzylamine (a selective substrate for MAO-B). The corresponding progression curves and the Lineweaver-Burk plots were generated using GraphPad Prism 7. Both Michaelis–Menten and the Lineweaver-Burk plots were depicted in Figure 4 and Figure 5. […] The maximal velocity (Vmax), the Michaelis constant (Km), and the inhibition constant (Ki) were calculated using SigmaPlot®.

Structure (SMILES)	IC50 [1]	inhibition at 10 µM [1]	inhibition at 30 µM [1]	inhibition at 100 µM [1]	Type of MAO-B inhibition (hMAO-B enzyme)	Ki (hMAO-B enzyme)
COC(=O)c1ccc2c(ccn2C(=O)c2ccc(Cl)c(Cl)c2)c1 [Compound 7b, Methyl 1-(3,4-dichlorobenzoyl)-1H-indole-5-carboxylate]	> 100000 nM	< 10%	< 10%	< 10%	–	–
O=C(Nc1ccc(I)cc1)c1ccc2[nH]ccc2c1 [Compound 8a, N-(4-iodophenyl)-1H-indole-5-carboxamide]	> 100000 nM	17.2%	21.7%	23.5%	competitive, and accordingly, reversible; also recorded: Competitive inhibition	10.3 nM
O=C(Nc1ccc(Br)cc1)c1ccc2[nH]ccc2c1 [Compound 8b, N-(4-bromophenyl)-1H-indole-5-carboxamide]	> 100000 nM	15.1%	27.9%	30.1%	competitive, and accordingly, reversible; also recorded: Competitive inhibition	6.63 nM
O=C(Nc1ccc2c(c1)OCO2)c1ccc2[nH]ccc2c1 [Compound 8e, N-(benzo[d][1,3]dioxol-5-yl)-1H-indole-5-carboxamide]	> 100000 nM	< 10%	< 10%	< 10%	–	–
